Laboratory results: US11572590B2, “Methods for evaluating tumor cell spheroids using 3D microfluidic cell culture device” (Dana-Farber Cancer Institute, Inc., priority 2017, dated 2023)
Read-outs that look alike come from different tables or passages of the source.

Experiments:
Test in all cases: SelectScreen Kinase Profiling, single point inhibition and IC50 for off-target kinases
Type in all cases: biochemical
off-target kinases [1] = biological target: off-target kinases (Homo sapiens, UniProt P10721, N822K); conditions: KIT N822K, LanthaScreen Binding
Chain of off-target kinases (Homo sapiens, UniProt P10721, N822K) (P10721 26-976 N822K): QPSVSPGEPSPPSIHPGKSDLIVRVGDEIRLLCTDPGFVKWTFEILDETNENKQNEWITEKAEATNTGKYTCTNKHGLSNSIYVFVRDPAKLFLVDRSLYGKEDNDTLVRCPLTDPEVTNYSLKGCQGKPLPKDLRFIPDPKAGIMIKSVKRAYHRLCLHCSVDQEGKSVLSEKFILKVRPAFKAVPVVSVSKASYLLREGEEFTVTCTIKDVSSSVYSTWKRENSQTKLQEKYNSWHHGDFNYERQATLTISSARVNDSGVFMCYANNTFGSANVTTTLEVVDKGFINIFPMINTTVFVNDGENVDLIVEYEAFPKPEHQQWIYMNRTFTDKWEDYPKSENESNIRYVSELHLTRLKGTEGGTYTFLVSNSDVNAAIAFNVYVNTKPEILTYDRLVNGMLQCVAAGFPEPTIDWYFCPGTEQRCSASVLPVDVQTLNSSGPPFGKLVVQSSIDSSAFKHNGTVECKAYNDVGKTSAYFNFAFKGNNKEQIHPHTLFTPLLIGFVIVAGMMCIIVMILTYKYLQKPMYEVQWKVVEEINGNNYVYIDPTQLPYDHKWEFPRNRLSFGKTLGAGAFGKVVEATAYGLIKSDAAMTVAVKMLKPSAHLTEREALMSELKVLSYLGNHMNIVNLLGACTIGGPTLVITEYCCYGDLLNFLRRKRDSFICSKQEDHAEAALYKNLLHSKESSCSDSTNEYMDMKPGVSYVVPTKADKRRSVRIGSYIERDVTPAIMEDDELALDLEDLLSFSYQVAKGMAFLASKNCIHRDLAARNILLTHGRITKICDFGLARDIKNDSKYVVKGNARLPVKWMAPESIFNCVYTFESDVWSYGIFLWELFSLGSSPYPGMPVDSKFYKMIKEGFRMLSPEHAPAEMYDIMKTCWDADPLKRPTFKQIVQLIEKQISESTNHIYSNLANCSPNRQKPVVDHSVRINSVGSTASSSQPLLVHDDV

off-target kinases [2] = biological target: off-target kinases (Homo sapiens, UniProt P37173); conditions: TGFBR2, LanthaScreen Binding
Chain of off-target kinases (Homo sapiens, UniProt P37173) (P37173 23-567): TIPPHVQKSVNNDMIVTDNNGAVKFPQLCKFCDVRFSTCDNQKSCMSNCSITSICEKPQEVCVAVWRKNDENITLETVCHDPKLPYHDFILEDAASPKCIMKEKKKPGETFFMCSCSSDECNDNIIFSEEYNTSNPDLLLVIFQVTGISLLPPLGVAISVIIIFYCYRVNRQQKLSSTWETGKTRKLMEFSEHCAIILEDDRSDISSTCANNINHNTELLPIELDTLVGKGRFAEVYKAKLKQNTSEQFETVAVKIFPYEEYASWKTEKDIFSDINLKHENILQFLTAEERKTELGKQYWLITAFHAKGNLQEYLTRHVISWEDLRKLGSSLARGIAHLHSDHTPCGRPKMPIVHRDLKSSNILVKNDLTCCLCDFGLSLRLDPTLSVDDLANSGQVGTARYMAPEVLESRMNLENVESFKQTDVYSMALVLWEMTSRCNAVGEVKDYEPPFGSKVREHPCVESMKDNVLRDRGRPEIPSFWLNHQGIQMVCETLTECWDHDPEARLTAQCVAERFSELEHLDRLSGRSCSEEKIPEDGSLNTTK

off-target kinases [3] = biological target: off-target kinases (Homo sapiens, UniProt P07947); conditions: YES1, ATP Km app, ZLYTE
off-target kinases [4] = biological target: off-target kinases (Homo sapiens, UniProt P09769); conditions: FGR, ATP Km app, ZLYTE
off-target kinases [5] = biological target: off-target kinases (Homo sapiens, UniProt O60674); conditions: ATP Km app, ZLYTE
Chain of off-target kinases (Homo sapiens, UniProt O60674) (O60674 whole entry): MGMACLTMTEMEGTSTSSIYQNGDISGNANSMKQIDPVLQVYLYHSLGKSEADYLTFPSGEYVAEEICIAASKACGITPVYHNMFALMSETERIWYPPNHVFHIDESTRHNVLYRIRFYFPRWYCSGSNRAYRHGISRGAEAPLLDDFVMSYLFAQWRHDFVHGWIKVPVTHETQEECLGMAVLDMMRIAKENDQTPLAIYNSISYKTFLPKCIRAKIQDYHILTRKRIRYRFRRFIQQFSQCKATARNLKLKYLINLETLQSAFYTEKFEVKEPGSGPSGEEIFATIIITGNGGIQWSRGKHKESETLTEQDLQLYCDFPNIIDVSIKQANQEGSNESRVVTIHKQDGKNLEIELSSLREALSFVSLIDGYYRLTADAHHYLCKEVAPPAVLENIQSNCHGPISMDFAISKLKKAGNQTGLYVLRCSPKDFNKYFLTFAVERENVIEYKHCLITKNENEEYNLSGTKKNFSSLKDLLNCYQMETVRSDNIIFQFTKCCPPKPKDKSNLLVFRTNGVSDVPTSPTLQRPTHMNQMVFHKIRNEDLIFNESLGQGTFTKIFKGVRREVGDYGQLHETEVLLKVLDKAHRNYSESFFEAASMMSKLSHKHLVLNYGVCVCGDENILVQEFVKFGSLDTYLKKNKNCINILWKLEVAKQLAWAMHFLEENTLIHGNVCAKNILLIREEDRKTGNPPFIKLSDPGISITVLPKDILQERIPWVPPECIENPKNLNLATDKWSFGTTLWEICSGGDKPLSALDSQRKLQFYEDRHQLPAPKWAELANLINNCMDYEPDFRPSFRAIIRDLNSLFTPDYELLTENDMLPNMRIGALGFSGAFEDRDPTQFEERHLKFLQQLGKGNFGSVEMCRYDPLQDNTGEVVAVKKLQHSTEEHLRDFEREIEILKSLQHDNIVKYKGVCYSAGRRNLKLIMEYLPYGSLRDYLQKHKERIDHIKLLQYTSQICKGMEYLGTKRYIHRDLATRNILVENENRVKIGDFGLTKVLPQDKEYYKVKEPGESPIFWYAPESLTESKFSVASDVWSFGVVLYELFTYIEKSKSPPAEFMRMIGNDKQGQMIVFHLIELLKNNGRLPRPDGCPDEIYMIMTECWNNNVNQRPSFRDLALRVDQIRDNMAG

off-target kinases [6] = biological target: off-target kinases (Homo sapiens, UniProt Q15208); conditions: STK38 (NDR), LanthaScreen Binding
Chain of off-target kinases (Homo sapiens, UniProt Q15208) (Q15208 whole entry): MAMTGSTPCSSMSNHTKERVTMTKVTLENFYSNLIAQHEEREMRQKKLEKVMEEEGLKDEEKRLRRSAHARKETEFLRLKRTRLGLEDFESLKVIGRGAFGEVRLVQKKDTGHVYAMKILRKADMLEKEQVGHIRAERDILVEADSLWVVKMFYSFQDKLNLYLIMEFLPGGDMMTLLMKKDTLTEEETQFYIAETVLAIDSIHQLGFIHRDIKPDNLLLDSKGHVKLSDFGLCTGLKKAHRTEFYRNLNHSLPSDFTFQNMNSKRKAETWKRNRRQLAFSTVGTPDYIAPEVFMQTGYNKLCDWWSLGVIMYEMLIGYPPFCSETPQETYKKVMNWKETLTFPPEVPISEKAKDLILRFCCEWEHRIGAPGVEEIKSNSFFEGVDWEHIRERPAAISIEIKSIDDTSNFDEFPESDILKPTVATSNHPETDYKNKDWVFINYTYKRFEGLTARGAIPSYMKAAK

off-target kinases [7] = biological target: off-target kinases (Homo sapiens, UniProt Q9UM73, L1196M); conditions: ALKL1196M (mutant), LanthaScreen Binding
Chain of off-target kinases (Homo sapiens, UniProt Q9UM73, L1196M) (Q9UM73 19-1620 L1196M): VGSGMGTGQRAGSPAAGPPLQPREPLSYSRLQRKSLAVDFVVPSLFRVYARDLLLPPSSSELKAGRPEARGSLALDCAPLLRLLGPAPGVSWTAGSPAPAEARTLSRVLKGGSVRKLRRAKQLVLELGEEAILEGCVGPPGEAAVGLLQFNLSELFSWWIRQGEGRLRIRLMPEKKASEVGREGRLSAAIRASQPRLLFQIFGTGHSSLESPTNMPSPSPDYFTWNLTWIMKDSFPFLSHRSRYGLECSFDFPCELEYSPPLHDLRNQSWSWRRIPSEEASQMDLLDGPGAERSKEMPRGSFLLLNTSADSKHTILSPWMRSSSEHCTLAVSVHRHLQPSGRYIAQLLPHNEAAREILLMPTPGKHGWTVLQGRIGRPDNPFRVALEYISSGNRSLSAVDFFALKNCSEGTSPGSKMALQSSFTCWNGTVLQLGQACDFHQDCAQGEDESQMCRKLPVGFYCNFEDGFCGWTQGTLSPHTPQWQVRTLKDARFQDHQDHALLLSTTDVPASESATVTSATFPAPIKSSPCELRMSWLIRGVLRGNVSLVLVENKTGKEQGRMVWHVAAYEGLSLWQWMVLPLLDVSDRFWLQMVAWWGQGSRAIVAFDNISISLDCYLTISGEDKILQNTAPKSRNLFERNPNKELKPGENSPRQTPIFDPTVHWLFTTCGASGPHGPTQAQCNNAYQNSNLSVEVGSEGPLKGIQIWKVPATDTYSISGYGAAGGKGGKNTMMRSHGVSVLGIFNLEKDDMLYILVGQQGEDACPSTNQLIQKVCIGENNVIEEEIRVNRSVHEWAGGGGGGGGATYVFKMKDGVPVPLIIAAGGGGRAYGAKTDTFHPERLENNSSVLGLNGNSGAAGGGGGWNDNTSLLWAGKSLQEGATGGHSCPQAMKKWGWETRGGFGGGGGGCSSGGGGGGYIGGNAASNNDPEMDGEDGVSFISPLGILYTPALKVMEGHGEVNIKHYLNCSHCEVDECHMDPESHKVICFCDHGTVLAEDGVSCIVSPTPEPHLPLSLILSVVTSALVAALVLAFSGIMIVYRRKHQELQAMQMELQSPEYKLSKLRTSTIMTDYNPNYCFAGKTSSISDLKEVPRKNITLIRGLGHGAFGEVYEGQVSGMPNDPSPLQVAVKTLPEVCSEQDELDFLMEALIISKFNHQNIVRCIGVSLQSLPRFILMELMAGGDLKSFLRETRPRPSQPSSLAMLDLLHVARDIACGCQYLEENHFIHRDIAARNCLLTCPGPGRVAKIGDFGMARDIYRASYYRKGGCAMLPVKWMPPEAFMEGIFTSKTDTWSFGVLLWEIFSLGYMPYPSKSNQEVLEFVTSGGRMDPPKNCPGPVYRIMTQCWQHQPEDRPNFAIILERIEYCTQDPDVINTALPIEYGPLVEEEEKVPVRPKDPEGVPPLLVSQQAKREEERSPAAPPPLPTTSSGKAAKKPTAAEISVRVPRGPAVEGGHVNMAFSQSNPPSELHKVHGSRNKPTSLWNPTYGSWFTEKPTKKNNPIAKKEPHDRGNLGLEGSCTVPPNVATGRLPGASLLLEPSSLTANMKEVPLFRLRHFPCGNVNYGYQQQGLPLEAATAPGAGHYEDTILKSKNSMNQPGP

off-target kinases [8] = biological target: T1, off-target kinases (Homo sapiens, UniProt O15146); conditions: MUSK, ZLYTE, ATP Km app
T1 sequence (O15146 24-869): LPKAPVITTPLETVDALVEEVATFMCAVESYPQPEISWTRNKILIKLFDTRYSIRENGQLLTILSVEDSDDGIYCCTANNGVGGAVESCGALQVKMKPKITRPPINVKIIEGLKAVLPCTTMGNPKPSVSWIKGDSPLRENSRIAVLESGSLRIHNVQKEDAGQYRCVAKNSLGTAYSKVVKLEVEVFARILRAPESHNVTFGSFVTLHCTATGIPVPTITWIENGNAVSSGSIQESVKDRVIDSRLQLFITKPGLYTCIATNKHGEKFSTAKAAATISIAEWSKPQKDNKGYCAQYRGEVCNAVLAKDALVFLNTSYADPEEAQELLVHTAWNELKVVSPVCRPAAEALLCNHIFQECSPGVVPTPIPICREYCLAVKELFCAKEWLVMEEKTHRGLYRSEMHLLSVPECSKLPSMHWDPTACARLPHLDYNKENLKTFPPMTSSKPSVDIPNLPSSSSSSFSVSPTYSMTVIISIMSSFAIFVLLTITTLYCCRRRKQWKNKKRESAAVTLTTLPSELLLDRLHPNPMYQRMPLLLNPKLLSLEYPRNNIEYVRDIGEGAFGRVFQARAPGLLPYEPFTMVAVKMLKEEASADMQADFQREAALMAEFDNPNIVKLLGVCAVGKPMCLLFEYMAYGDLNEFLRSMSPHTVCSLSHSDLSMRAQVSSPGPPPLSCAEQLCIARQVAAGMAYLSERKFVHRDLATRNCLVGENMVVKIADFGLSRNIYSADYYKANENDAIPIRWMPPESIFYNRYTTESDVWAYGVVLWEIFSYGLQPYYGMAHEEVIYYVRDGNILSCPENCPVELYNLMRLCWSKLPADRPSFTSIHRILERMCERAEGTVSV

`N#Cc1cc(-c2ncnc(Nc3ccc(N4CCN(C5COC5)CC4)cc3)n2)ccc1OC1CCOCC1` [Compound 1, 5-(4-((4-(4-(oxetan-3-yl)piperazin-1-yl)phenyl)amino)-1,3,5-triazin-2-yl)-2-((tetrahydro-2H-pyran-4-yl)oxy)benzonitrile] was tested, and the inhibition (off-target kinases [1]; read-out: % Inhibition 1) was 66%, the inhibition (off-target kinases [1]; read-out: % Inhibition 2) was 67% and the inhibition (off-target kinases [1]; read-out: % Inhibition Avg) was 66%. The inhibition (off-target kinases [2]; read-out: % Inhibition 1) was 92%, the inhibition (off-target kinases [2]; read-out: % Inhibition 2) was 95% and the inhibition (off-target kinases [2]; read-out: % Inhibition Avg) was 93%. For the same compound, the inhibition (off-target kinases [3]; read-out: % Inhibition 1) was 55%, the inhibition (off-target kinases [3]; read-out: % Inhibition 2) was 51% and the inhibition (off-target kinases [3]; read-out: % Inhibition Avg) was 53%. For the same compound, the inhibition (off-target kinases [4]; read-out: % Inhibition 1) was 53%, the inhibition (off-target kinases [4]; read-out: % Inhibition 2) was 53% and the inhibition (off-target kinases [4]; read-out: % Inhibition Avg) was 53%. It also gave an inhibition (off-target kinases [5]; JAK2, read-out: % Inhibition 1) of 67%, an inhibition (off-target kinases [5]; JAK2, read-out: % Inhibition 2) of 68% and an inhibition (off-target kinases [5]; JAK2, read-out: % Inhibition Avg) of 67%. For the same compound, the inhibition (off-target kinases [5]; JAK2 JH1 JH2, read-out: % Inhibition 1) was 46%, the inhibition (off-target kinases [5]; JAK2 JH1 JH2, read-out: % Inhibition 2) was 47% and the inhibition (off-target kinases [5]; JAK2 JH1 JH2, read-out: % Inhibition Avg) was 46%. It also gave an inhibition (off-target kinases [6]; read-out: % Inhibition 1) of 51%, an inhibition (off-target kinases [6]; read-out: % Inhibition 2) of 49% and an inhibition (off-target kinases [6]; read-out: % Inhibition Avg) of 50%. It also gave an inhibition (off-target kinases [7]; read-out: % Inhibition 1) of 1%, an inhibition (off-target kinases [7]; read-out: % Inhibition 2) of 9% and an inhibition (off-target kinases [7]; read-out: % Inhibition Avg) of 5%. It also gave an inhibition (off-target kinases [8]; read-out: % Inhibition 1) of 15%, an inhibition (off-target kinases [8]; read-out: % Inhibition 2) of 8% and an inhibition (off-target kinases [8]; read-out: % Inhibition Avg) of 12%.
